Data reported in US8071654B2, “Inhibitors of thromboxane formation and action” (priority 2000, dated 2011).

Legend:
TP receptor [1] = target: T1, TP receptor (Homo sapiens, UniProt P21731); experiment: platelet aggregation evoked by I-BOP; format: cell-based; conditions: 2 ng/0.5 ml, data not shown
T1 construct: endogenous in cells; host or cells: washed human platelets
T1 sequence (P21731 1-343): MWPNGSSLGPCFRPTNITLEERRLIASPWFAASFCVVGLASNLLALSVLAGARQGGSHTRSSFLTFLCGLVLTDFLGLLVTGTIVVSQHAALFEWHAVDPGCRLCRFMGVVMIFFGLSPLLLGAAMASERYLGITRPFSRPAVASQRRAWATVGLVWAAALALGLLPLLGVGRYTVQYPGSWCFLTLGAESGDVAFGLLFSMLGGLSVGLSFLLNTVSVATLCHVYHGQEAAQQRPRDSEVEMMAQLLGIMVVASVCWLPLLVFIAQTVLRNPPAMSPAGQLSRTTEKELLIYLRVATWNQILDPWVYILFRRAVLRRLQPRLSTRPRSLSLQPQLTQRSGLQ
Method: Venous blood was obtained from healthy human subjects who had not taken NSAID's for at least two weeks. Blood was drawn into plastic syringes containing ACD. It was immediately centrifuged at 23° at 200×g for 15 min. The platelet rich plasma was transferred into fresh plastic tubes and centrifuged at 400×g for 5 min. The supernatant was discarded and the platelet sediment was resuspended in fresh medium containing NaCl (137 mM), KCl (1 mM), NaH2PO4, glucose (5.5 mM), HEPES (20 mM) and CaCl2 (1 mM) and allowed to stand at room temperature for 30 min. A platelet count was made, which determined the volume of platelet suspension needed to make up 350×10^6 cells for each measurement. The aliquot was diluted with medium to make 0.5 ml/assay/cuvette. […]
0.5 ml of platelet suspension was added to siliconized glass tubes (four at a time) and heated with magnetic stirring to 37° for 1 min in a platelet aggregometer (PAP-4C). […] The response was recorded for the next 5 min. […] In experiments where the conversion of tritiated PGH2 was to be monitored, the procedure described above was repeated with tritiated PGH2 instead of unlabeled PGH2. After extraction of the sample as described above, the radiolabeled compounds were analyzed by TLC. Dose response curves for varying amounts of test compounds were generated and the data expressed as % inhibition of collagen-induced platelet aggregation. […]

platelet TP receptor = target: T2, platelet TP receptor (Homo sapiens, UniProt P21731); experiment: binding of 125I-BOP to platelets; conditions: 10×10^6 cells/0.5 ml; read-out: IC50 for competition with 125I-BOP binding to platelets
T2 construct: endogenous in cells; host or cells: washed human platelets
T2 sequence (P21731 1-343): T1 sequence (P21731 1-343)
Method: Washed platelets were prepared as described above, except that the platelet suspension was made up at a concentration of 10×10^6 cells/0.5 ml. The binding assay involved the addition of radioligand (30,000 cpm ^125I-BOP) to all tubes in triplicate, and either various doses of unlabeled I-BOP (10^−9-10^−7 M), PBT-3 (10^−9-10^−7 M) or U46619 (10^−9-10^−7 M) in 1 μl ethanol. Additional tubes containing excess unlabeled I-BOP were included to assess the extent of non-specific binding.

[2] = intra ocular pressure in rats, eye drops, TonoPen; format: in vivo, Brown Norway rats; conditions: one drop daily to left eye, after 10 days' treatment, vs untreated right eye
Method: Brown Norway rats (300 g) were purchased from Charles River (St. Constant, Que), and housed (two/cage) in an animal facility with free access to food and water. A light cycle of 12 h on and 12 h off was maintained. Animals were allowed to adjust for one week prior to treatment during which period they were handled daily to get them familiarized with the procedures.
Prior to treatment with test drugs, the rats' intra ocular pressures (IOP) were measured to establish baseline readings. One drop of Didocaine (0.5%, Dioptic Labs, Markham, Ont) was administered to each eye, and the pressure in each eye was measured with a TonoPen (Mentor XL, Innova Medical Ophthalmics, Toronto). The treatment protocol consisted of daily administration of one drop of one of the following substances to the left eye, the right eye being left untreated to act as a control. […] Following this, the animals were left without treatment for 2 weeks (wash-out), and then treatment was started again, the same animals receiving the same drugs. Results are calculated from at least 30 readings/test animal and presented as the mean±SEM (left eye vs right eye), with the exclusion of readings >50 and <10 which were considered spurious and artifactual readings.

human platelets = experiment: collagen-evoked aggregation of washed human platelets; format: cell-based; conditions: single dose 1 μg added 2 min prior to collagen (2 μg); 350×10^6 washed human platelets in 0.5 ml
Method: Venous blood was obtained from healthy human subjects who had not taken NSAID's for at least two weeks. Blood was drawn into plastic syringes containing ACD. […] The platelet rich plasma was transferred into fresh plastic tubes and centrifuged at 400×g for 5 min. […] A platelet count was made, which determined the volume of platelet suspension needed to make up 350×10^6 cells for each measurement. The aliquot was diluted with medium to make 0.5 ml/assay/cuvette. Appropriate calibration of the aggregometer (PAP-4C) for 0% and 100% transmission was carried out through the use of a sample of platelet suspension and cell-free medium (37).
(§1) 0.5 ml of platelet suspension was added to siliconized glass tubes (four at a time) and heated with magnetic stirring to 37° for 1 min in a platelet aggregometer (PAP-4C). Either vehicle alone (ethanol, 1 μl) or hepoxilin analog was then added, followed two min later by agonist (collagen: 2 μg; PGH2: 100 ng/0.5 ml; U46619: 10 ng/0.5 ml or I-BOP: 2 ng/0.5 ml). The response was recorded for the next 5 min. In experiments where analysis of TxB2 and HHT were to be made by HPLC, the platelet suspension at the end of the experiment was diluted with ethyl acetate, 100 ng of prostaglandin B1 was added as internal standard, and the mixture was acidified to pH 3 with 0.1 N HCl. After centrifugation, the organic layer was separated, washed twice with water to neutrality, and evaporated to dryness. Half of the sample was taken and was resuspended in 1 ml ethyl acetate containing 20 μg ADAM reagent, and was left in the dark for 2 h (38). The solvent was then evaporated and the residue was acetylated with a solution of pyridine/acetic anhydride (3/1, v/v) during 16 h at 23°. The reagents were evaporated to dryness and the residue was resuspended in acetonitrile/water for HPLC analysis. In experiments where the conversion of tritiated PGH2 was to be monitored, the procedure described above was repeated with tritiated PGH2 instead of unlabeled PGH2. After extraction of the sample as described above, the radiolabeled compounds were analyzed by TLC. Dose response curves for varying amounts of test compounds were generated and the data expressed as % inhibition of collagen-induced platelet aggregation. Each point was investigated 5 times and statistical analysis of the data was carried out using Macintosh Statview statistical software.

TP receptor [3] = target: T1, TP receptor; experiment: platelet aggregation evoked by the TxA2 mimic U46619; format: cell-based; conditions: aspirin 20 μg
Method: Venous blood was obtained from healthy human subjects who had not taken NSAID's for at least two weeks. Blood was drawn into plastic syringes containing ACD. It was immediately centrifuged at 23° at 200×g for 15 min. The platelet rich plasma was transferred into fresh plastic tubes and centrifuged at 400×g for 5 min. The supernatant was discarded and the platelet sediment was resuspended in fresh medium containing NaCl (137 mM), KCl (1 mM), NaH2PO4, glucose (5.5 mM), HEPES (20 mM) and CaCl2 (1 mM) and allowed to stand at room temperature for 30 min. A platelet count was made, which determined the volume of platelet suspension needed to make up 350×10^6 cells for each measurement. The aliquot was diluted with medium to make 0.5 ml/assay/cuvette. Appropriate calibration of the aggregometer (PAP-4C) for 0% and 100% transmission was carried out through the use of a sample of platelet suspension and cell-free medium (37).
as §1

[4] = cited from earlier work

O=C(O)CCC/C=C\C[C@@H]1[C@@H](/C=C/[C@H](O)COc2ccc(I)cc2)[C@H]2CC[C@@H]1O2 (relative stereo) [I-BOP, 5-heptenoic acid, 7-[3-[3-hydroxy-4-(4-iodophenoxy)-1-butenyl]-7-oxabicyclo [2.2.1]hept-2-yl]-,[15-[1α, 2α(Z), 3β(1E,3S*), 4α]], reference compound]
aggregation caused by the agonist (TP receptor [1]): 70% | IC50 (platelet TP receptor): 0.5 nM

CC(C)(C)NC[C@H](O)COc1cccc2c1CCCC2=O [O-bunolol, reference compound]
effect on intra ocular pressure (IOP) ([2]; 0.5%): non-significant rise

CCCCC/C=C\CC1CC1/C=C/[C@@H](O)C/C=C\CCCC(=O)OC (stereo partly drawn) [PBT-1, 8(S)-hydroxy-11,12-cyclopropyl-eicosa-5Z,9E,14Z-trienoic acid methyl ester]
inhibition of collagen-evoked aggregation (human platelets): inhibited the collagen effect

CCCCC/C=C\CC1CC1/C=C/C(O)C/C=C\CCCC(=O)OC [PBT-2, 8(R)-hydroxy-11,12-cyclopropyl-eicosa-5Z,9E,14Z-trienoic acid methyl ester]
inhibition of collagen-evoked aggregation (human platelets): inhibited the collagen effect

CCCCC/C=C\CC1CC1[C@H](O)/C=C\C/C=C\CCCC(=O)OC (stereo partly drawn) [PBT-4, 10(R)-hydroxy-11,12-cyclopropyl-eicosa-5Z,8Z,14Z-trienoic acid methyl ester]
inhibition of collagen-evoked aggregation (human platelets): inhibited the collagen effect

CCCCC/C=C\CC1CC1[C@@H](O)/C=C\C/C=C\CCCC(=O)N[C@H]1C(O)O[C@H](CO)[C@H](O)[C@@H]1O (stereo partly drawn) [PBT-30, 10(S)-hydroxy-11,12-cyclopropyl-eicosa-5Z, 8Z, 14Z-trienoic acid galactosamide]
effect on intra ocular pressure (IOP) ([2]; 0.005%): tended to reduce IOP but the effect did not reach statistical significance

CCCCCC(O)C=CC1C2CC(CO2)C1CC=CCCCC(=O)O (stereo not drawn) [U46619, 5-heptenoic acid, 7-[6-(3-hydroxy-1-octenyl)-2-oxabicyclo-[2,2,1]-hept-5yl]-[1R-[1α,4α,5β(z), 6α(1E,3S*)]-9,11-dideoxy-9α,11α-methanoepoxyprostaglandin F2α, reference compound]
IC50 (platelet TP receptor): 4.1 nM

CC(=O)Oc1ccccc1C(=O)O [aspirin, reference compound]
effect on U46619-evoked aggregation (TP receptor [3]): did not block

CC(C)OC(=O)CCC/C=C\C[C@@H]1[C@@H](CC[C@@H](O)CCc2ccccc2)[C@H](O)C[C@@H]1O [latanoprost, reference compound]
effect on intra ocular pressure (IOP) ([2]; 0.005%): significant reduction in IOP

CCCCC[C@H](O)/C=C/[C@H]1O[C@H]2C[C@H](O2)[C@@H]1C/C=C\CCCC(=O)O [thromboxane A2 (TxA2), thromboxane A2]
half life in the body [4]: 30 s
